Experimental data: patent US11319348B2, “Synthetic beta-amyloid peptides capable of forming stable antigenic oligomers” (The Regents of the University of California, priority 2016, dated 2022)
Non-standard residues stand in square brackets, D forms with d. No end group written: not given here. NMeF = CN[C@@H](Cc1ccccc1)C(=O)O; Orn = NCCC[C@H](N)C(=O)O

Assays:
caspase-3 = caspase-3 activation assay; assay type: cell-based, human; settings: for caspase-3 activation / induction of caspase-3 mediated apoptosis: SH-SY5Y cells; for caspase-3 activation: 72 h; for induction of caspase-3 mediated apoptosis: trimers at 6 μM, within 72 h; for caspase-3 activity level compared to staurosporine: after treatment of SH-SY5Y cells
Protocol: One of the ways in which A oligomers elicit toxicity is through induction of caspase-3 mediated apoptosis. Trimers 3 and 4 were evaluated for their ability to induce caspase-3 mediated apoptosis using a rhodamine-based caspase-3 activity assay.
The toxicities of peptides 1 and […], and trimers 3 and 4 toward SH-SY5Y cells were assessed by LDH release and caspase-3 activation assays. Cells were incubated in the presence or absence of equivalent concentrations of peptides 1 or 3, or trimers 3 and 4 for 72 h in 96-well plates. The LDH release assay was performed using the Pierce LDH Cytotoxicity Assay Kit from Thermo Scientific. The caspase-3 assay was performed using the Roche APO-One Homogeneous Caspase-3/7 Assay. Experiments were performed in replicates of five and an additional 10 wells were used for controls. Cells were cultured in the inner 60 wells (rows B-G, columns 2-11) of the 96-well plate. DMEM:F12 media (100 μL) was added to the outer wells (rows A and H, columns 1 and 12), in order to ensure the greatest reproducibility of data generated in the inner wells.
SH-SY5Y cells were plated in a 96-well plate at 30,000 cells per well. Cells were incubated in 100 μL of a 1:1 mixture of DMEM:F12 media supplemented with 10% fetal bovine serum, 100 U/mL penicillin, and 100 μg/mL streptomycin at 37° C. in a 5% CO2 atmosphere and allowed to adhere to the bottom of the plate for 24 hours.
After 24 hours, the culture media was removed and replaced with 90 μL of serum-free DMEM:F12 media. A 10 μL aliquot of the working solutions of peptides 1 or 2, or trimers 3 and 4 was added to each well, for a well-concentration of 18 μM and 9 μM for peptides 1 and 2, 6 μM and 3 μM for trimer 3 or 6 μM, 3 μM, 1.5 μM, and 0.75 μM for trimer 4. Experiments were run in replicates of five. Five wells were used as controls and received a 10 μL aliquot of deionized water (vehicle). Another five wells were left untreated, to be subsequently used as controls with lysis buffer for the LDH release assay, or staurosporine for the caspase-3 activation assay. Cells were incubated at 37° C. in a 5% CO2 atmosphere for 72 hours.
After 67 hours, 10 μL of 10× staurosporine was added to the control wells, and the cells were incubated for an additional 5 h. Next, the compound-containing media was removed and replaced with 25 μL of fresh serum-free DMEM/F12 media. A 25-μL aliquot of caspase-3 substrate, prepared according to manufacturer's protocol, was then added to each well. The plate was sealed with a clear adhesive plate sealer and fluorescence was monitored over 18 h while shaking at 250 rpm using a Gemini XPS fluorescence plate reader (excitation at 499 nm, emission at 521 nm). Data from the 18 h time point were processed by subtracting the relative fluorescence units (RFU) of the vehicle control wells from the RFU of the peptides 1 and 2 or trimers 3 and 4-treated wells.

[1] = size exclusion chromatography in Tris buffer; assay type: physicochemical; settings: SEC
Source text: The elution profile of peptide 8 was compared to the size standards vitamin B12, aprotinin, and cytochrome c, as well as peptide 2. Peptide 8 elutes as a broad peak with three distinct humps (FIG. 41B). […] Peptide 2 elutes as two distinct peaks: a larger peak with an elution volume consistent with the molecular weight of a dimer, and a smaller peak with an elution volume consistent with the molecular weight of a trimer (FIG. 41B). […]

[2] = X-ray crystallography, oligomers in the crystal; assay type: physicochemical; settings: crystal state
Protocol: The structures of trimers 3 and 4 were elucidated by X-ray crystallography. One of the challenges in X-ray crystallography is determining the X-ray crystallographic phases. Doing so often requires incorporation of a heavy atom—such as selenium, bromine or iodine—through covalent modification. In previously solving the X-ray crystallographic structures of peptides 1 and 2, homologues were prepared containing p-iodophenylalanine. In solving the X-ray crystallographic structures of trimers 3 and 4, two techniques for X-ray crystallographic phase determination that have not been widely used for peptides were employed: sulfur single-wavelength anomalous diffraction (S-SAD) and post-crystallization incorporation of iodide ions into the crystal lattice.
S-SAD was used to determine the X-ray crystallographic structure of trimer 4. The intrinsic anomalous scattering of the sulfur atoms in the asymmetric unit provided sufficient data to determine the X-ray crystallographic phases. […]
Diffraction data for trimers 3 and 4 were collected on a Rigaku Micromax-007HF X-ray diffractometer with a rotating copper anode at 1.54 Å wavelength with 0.5° oscillation. […] Coordinates for the anomalous signals were determined by HySS in the Phenix software suite 1.10.1. Electron density maps were generated using anomalous coordinates determined by HySS as initial positions in Autosol. […]

Substance | caspase-3 activation (caspase-3) | induction of caspase-3 mediated apoptosis (caspase-3) | oligomer size [1] | oligomer size by crystallography [2] | caspase-3 activity level compared to staurosporine (caspase-3)
peptide 1: macrocyclic β-sheet peptide: Aβ17-23 and Aβ30-36 strands linked by two δOrn turns, Orn35, N-methyl on G33 (Seq. ID 18-19) | no | little or no effect |  |  | 
peptide 2: macrocyclic β-sheet peptide: Aβ17-23 and Aβ30-36 strands linked by two δOrn turns, Orn35, N-methyl on F20 (Seq. ID 20-21) | no | little or no effect | dimer, trimer |  | 
trimer 3: symmetric tris-disulfide crosslinked trimer generated from peptide 3 (chain 1 [Orn]CVFFCED; chain 2 [Orn]AIIGL[Orn]V; not fully specified (some residues); also: symmetric tris-disulfide crosslinked trimer, macrocyclic by macrolactamization, linkage of strands not given here) | yes | induced apoptosis |  | 6 | comparable
trimer 4: symmetric tris-disulfide crosslinked trimer generated from peptide 4 (chain 1 [Orn]CVF[NMeF]CED; chain 2 [Orn]AIIGL[Orn]V; also: symmetric tris-disulfide crosslinked trimer, macrocyclic by macrolactamization, linkage of strands not given here) | yes | induced apoptosis |  |  | comparable
